Measured values reported in PMC12713093, “Hepatitis E Virus ORF1 Polyprotein Harbors a Pocket‐Like Cavity That Is Vital for Virus Replication and Represents a Novel Antiviral Target” (Advanced Science, 2025).
pKd: −log10 of the molar value.

Target: T1, X-RdRp protein (HEV ORF1 X to RdRp domains, forming the 'pocket-like' cavity, PC) (Hepatitis E virus US2, UniProt Q9YLR1)
T1 construct: X-RdRp fragment of ORF1 polyprotein (X 850-998, Hel 1002-1279, RdRp 1298-1765)
T1 sequence (Q9YLR1 793-1708): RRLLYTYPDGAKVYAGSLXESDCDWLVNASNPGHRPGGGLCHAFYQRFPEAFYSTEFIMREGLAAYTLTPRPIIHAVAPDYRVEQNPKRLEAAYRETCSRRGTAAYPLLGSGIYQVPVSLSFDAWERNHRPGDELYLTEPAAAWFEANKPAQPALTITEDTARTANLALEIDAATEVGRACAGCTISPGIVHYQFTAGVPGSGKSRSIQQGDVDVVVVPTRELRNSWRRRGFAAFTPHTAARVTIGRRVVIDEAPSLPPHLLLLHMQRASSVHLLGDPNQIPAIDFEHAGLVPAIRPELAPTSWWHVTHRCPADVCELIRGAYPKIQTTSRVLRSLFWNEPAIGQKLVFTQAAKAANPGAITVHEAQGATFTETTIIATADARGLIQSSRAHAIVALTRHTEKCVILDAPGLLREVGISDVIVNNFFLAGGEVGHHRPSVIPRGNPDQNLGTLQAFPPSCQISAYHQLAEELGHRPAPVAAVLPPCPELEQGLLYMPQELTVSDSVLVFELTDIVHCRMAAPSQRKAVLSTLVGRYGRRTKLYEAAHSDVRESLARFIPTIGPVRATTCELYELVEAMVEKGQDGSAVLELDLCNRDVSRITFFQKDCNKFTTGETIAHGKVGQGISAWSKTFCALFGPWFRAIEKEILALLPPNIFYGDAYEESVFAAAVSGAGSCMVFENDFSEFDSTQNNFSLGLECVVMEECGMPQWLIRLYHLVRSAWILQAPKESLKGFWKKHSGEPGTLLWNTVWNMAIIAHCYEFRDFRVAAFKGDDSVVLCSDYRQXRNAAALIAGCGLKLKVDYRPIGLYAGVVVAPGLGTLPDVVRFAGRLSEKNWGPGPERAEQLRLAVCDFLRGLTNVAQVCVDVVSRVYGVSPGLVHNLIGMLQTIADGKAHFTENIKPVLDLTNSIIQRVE
Experiment: SPR, Biacore 8K, CM5 chip, protein immobilised by amine coupling, […] Langmuir fit
Format: binding
Details: protein refolded from inclusion bodies; site (X/RdRp pocket-like cavity) assigned by docking

`C[C@H]1CC[C@@]2(OC1)O[C@H]1C[C@H]3[C@@H]4CC=C5C[C@@H](O[C@@H]6O[C@@H](C)[C@H](O)[C@@H](O)[C@H]6O)C[C@@H](O[C@@H]6O[C@H](C)[C@H](O)[C@H](O)[C@H]6O)[C@]5(C)[C@H]4CC[C@]3(C)[C@H]1[C@@H]2C` [liriopesides B] was tested. Which pKd did it give?
Its pKd is 3.88.
